Assay results published in US11384075B2, “Quinolinone compounds” (Janssen Pharmaceutica NV, priority 2017, dated 2022).
pIC50: −log10 of the molar value.

Legend:
[1] = biological target: T1, NIH/3T3 cells overexpressing FGFR3 V555M-TACC3 fusion protein (Homo sapiens, UniProt P22607, V555M, cells depend on it); assay: NIH/3T3 FGFR3 V555M-TACC3 cell proliferation assay; format: cell-based; settings: 72-hr incubation, CellTiter Glo, starting with 10 μM; read-out: NIH/3T3 FGFR3 V555M-TACC3 CTG (IC50)
T1 construct: NIH/3T3 FGFR3 V555M-TACC3 CTG (IC50); other: 72-hr incubation, CellTiter Glo, starting with 10 μM; fused on or other part: Q9Y6A5 (Transforming acidic coiled-coil-containing protein 3)
T1 sequence (P22607 whole entry V555M, the tested form may be a part): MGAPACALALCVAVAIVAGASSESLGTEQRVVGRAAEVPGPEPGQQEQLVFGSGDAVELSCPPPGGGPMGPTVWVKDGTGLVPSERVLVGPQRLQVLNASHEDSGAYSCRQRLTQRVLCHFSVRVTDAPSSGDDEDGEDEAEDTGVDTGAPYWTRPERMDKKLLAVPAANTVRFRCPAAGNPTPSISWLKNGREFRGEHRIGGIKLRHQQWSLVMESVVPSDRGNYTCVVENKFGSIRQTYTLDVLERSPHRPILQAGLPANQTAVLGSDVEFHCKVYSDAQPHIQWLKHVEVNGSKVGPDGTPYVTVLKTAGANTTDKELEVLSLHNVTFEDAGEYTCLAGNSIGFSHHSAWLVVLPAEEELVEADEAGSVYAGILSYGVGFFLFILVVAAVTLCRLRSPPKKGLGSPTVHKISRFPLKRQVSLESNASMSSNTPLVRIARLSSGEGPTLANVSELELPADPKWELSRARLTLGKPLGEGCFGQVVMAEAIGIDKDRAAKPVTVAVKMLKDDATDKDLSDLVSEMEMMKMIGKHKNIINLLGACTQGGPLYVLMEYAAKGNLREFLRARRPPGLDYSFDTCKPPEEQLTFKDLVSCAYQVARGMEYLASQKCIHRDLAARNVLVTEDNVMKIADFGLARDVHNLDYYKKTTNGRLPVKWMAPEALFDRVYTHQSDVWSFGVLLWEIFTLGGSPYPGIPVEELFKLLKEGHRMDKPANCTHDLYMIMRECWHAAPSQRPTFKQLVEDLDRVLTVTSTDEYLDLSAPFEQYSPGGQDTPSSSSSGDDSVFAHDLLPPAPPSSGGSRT
Procedure: NIH/3T3 FGFR3 V555M-TACC3 Cell Proliferation Assay
(§1) In day 1, 90 μL of cell suspension (NIH/3T3 cells overexpressing FGFR3 V555M-TACC3 fusion protein) (total 30,000 cells per well in growth medium (DMEM containing 1% Glutamax, 10% FBS and 1% Pen/Strep)) was seeded in a 96-well plate and then incubated overnight at 37° C. and 5% CO2. In day 2, 10 μL of growth medium containing 10-fold stock solution of testing compound was added into cell cultures (9 dose points with 4× serial dilution, starting with 10 μM, 0.1% DMSO final). After 72-hr incubation at 37° C. and 5% CO2, in day 5 a volume of 50 μL CellTiter Glo (CTG) reagent was added into cell-containing 96-well plate and the plate was incubated at room temperature for 10 minutes before RLUs (relative light unit) were measured on a microplate reader with luminescence detection module. The RLU value was normalized to survival % and concentration-response curve was plotted using Prism to calculate IC50 (M), pIC50 (−log IC50) and HillSlope value.

[2] = biological target: T2, human FGFR3 wild type enzyme (cytoplasmic domain) (Homo sapiens, UniProt P22607); assay: FGFR3 wild type mobility shift assay (enzymatic assay); format: biochemical; settings: 75 μM ATP, 50 minutes at 30° C., Caliper EZ reader II
T2 construct: human FGFR3 wild type enzyme (cytoplasmic domain, from Carna Biosciences); purchased Carna Biosciences
T2 sequence (P22607 397-806 limits assumed): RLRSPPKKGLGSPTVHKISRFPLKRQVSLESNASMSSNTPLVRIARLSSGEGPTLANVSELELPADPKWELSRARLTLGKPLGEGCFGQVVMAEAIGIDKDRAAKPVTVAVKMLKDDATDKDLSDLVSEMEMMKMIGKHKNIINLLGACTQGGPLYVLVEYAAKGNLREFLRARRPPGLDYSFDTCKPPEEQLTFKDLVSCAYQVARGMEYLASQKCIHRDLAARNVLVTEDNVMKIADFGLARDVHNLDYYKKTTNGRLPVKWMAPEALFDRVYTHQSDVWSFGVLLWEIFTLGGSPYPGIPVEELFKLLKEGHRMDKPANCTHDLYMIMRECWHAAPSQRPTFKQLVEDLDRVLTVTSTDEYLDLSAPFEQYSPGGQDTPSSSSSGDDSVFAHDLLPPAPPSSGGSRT
Procedure: FGFR3 Wild Type Mobility Shift Assay (Enzymatic Assay)
(§2) In a final reaction volume of 25 μL, 0.04 ng/μL human FGFR3 wild type enzyme (cytoplasmic domain, from Carna Biosciences) was incubated with 75 μM ATP, 1 μM FL-peptide 30 substrate and 250 nL of testing compound (1% DMSO final) in assay buffer (100 mM HEPES pH 7.4, 10 mM MgCl2, 0.003% Brij35, 1 mM DTT). After incubation for 50 minutes at 30° C. the reaction was stopped with 10 μL of 0.5M EDTA pH 8.0, and then 25 μL of reaction mixture was transferred to reading plate and measured on Caliper EZ reader II. The substrate-product conversion rate was used as raw data for normalization and concentration-response curve (10 dose points with 4× serial dilution, starting with 10 μM) was plotted using Prism to calculate IC50 (M), pIC50 (−log IC50) and HillSlope value.

[3] = biological target: T3, NIH/3T3 cells overexpressing FGFR3 WT-TACC3 fusion protein (Homo sapiens, UniProt P22607); assay: NIH/3T3 FGFR3 WT-TACC3 cell proliferation assay; format: cell-based; settings: 72-hr incubation, CellTiter Glo, starting with 10 μM; read-out: NIH/3T3 FGFR3 WT-TACC3 CTG (IC50)
T3 construct: NIH/3T3 FGFR3 WT-TACC3 CTG (IC50); other: 72-hr incubation, CellTiter Glo, starting with 10 μM; fused on or other part: Q9Y6A5 (Transforming acidic coiled-coil-containing protein 3)
T3 sequence (P22607 whole entry, change not shown, the tested form may be a part): as the sequence (P22607 whole entry V555M, the tested form may be a part) above, with M555V counted along it
Procedure: NIH/3T3 FGFR3 WT-TACC3 Cell Proliferation Assay
as §1, with “WT-TACC3” for “V555M-TACC3”

[4] = biological target: T4, human FGFR3 V555M enzyme (cytoplasmic domain carrying V555M mutation) (Homo sapiens, UniProt P22607, V555M); assay: FGFR3 V555M mobility shift assay (enzymatic assay); format: biochemical; settings: 30 μM ATP, 45 minutes at 30° C., Caliper EZ reader II
T4 construct: human FGFR3 V555M enzyme (cytoplasmic domain carrying V555M mutation, from Carna Biosciences); purchased Carna Biosciences
T4 sequence (P22607 397-806 V555M limits assumed): as the sequence (P22607 397-806 limits assumed) above, with V159M counted along it
Procedure: FGFR3 V555M Mobility Shift Assay (Enzymatic Assay)
as §2, with “FGFR3 V555M” for “FGFR3 wild type”, “(cytoplasmic domain carrying V555M mutation,” for “(cytoplasmic domain,”, “with 30” for “with 75”, “for 45” for “for 50”

[5] = test system: NIH/3T3 cells transfected with the same control vector; assay: NIH/3T3 mock cell proliferation assay (counter assay, general toxicity); format: cell-based; settings: Mus musculus, NIH3T3, 72 h, 72-hr incubation, CellTiter Glo, starting with 30 μM; counter assay for general toxicity; read-out: NIH/3T3 MOCK CTG (IC50)
Procedure: NIH/3T3 Mock Cell Proliferation Assay
as §1, with “cells transfected with the same control vector as in the above two proliferation assays)” for “cells overexpressing FGFR3 V555M-TACC3 fusion protein)”, “with 3×” for “with 4×”, “with 30” for “with 10”, “μM, 0.3%” for “μM, 0.1%”

| GI50 [1] [nM] | pIC50 [2] | GI50 [3] [nM] | pIC50 [4] | SMILES | pIC50 [5] |
| --- | --- | --- | --- | --- | --- |
| 4.82 | 8.91 | 5.16 | 8.99 | CC(Nc1c(-c2nc3cc(C(F)(F)F)c(N4CCN(C)CC4)cc3[nH]2)c(=O)[nH]c2ccccc12)c1ncccn1 (single isomer, unassigned) [Compound 25a, (S*)-3-(6-(4-methylpiperazin-1-yl)-5-(trifluoromethyl)-1H-benzo[d]imidazol-2-yl)-4-((1-(pyrimidin-2-yl)ethyl)amino)quinolin-2(1H)-one] | 5.65 |
| 30.2 | 8.88 | 30.1 | 9.63 | CC(Nc1c(-c2nc3ccc(N4CCOCC4)cc3[nH]2)c(=O)[nH]c2ccccc12)c1cocn1 (single isomer, unassigned) [Compound 51a, (S*)-3-(6-morpholino-1H-benzo[d]imidazol-2-yl)-4-((1-(oxazol-4-yl)ethyl)amino)-quinolin-2(1H)-one] | 5.93 |
| 17.1 | 9.08 | 23.5 | 9.31 | C[C@H](Nc1c(-c2nc3ccc(C(=O)N4CCOCC4)cc3[nH]2)c(=O)[nH]c2ccccc12)c1ccccn1 [Compound 20, (S)-3-(6-(morpholine-4-carbonyl)-1H-benzo[d]imidazol-2-yl)-4-((1-(pyridin-2-yl)-ethyl)amino)quinolin-2(1H)-one] | 6.02 |
| 41.8 | 6.23 | 58.5 | 6.69 | C[C@@H](Nc1c(-c2nc3ccc(N4CCOCC4)cc3[nH]2)c(=O)[nH]c2ccccc12)c1ncccn1 [Compound 3, (R)-3-(6-morpholino-1H-benzo[d]imidazol-2-yl)-4-((1-(pyrimidin-2-yl)ethyl)-amino)quinolin-2(1H)-one] | 4.96 |
| 6.48 | 9.35 | 13.3 | 9.38 | CC(Nc1c(-c2nc3ccc(N4C[C@@H](C)O[C@@H](C)C4)cc3[nH]2)c(=O)[nH]c2ccccc12)c1ncccn1 (single isomer, unassigned) [Compound 22a, 3-(6-((2S,6R)-2,6-dimethylmorpholino)-1H-benzo[d]imidazol-2-yl)-4-(((S*)-1-(pyrimidin-2-yl)ethyl)amino)quinolin-2(1H)-one] | 5.19 |
| 170 | 8.14 | 315 | 8.63 | CC(Nc1c(-c2nc3ccc(N4CCOCC4)cc3[nH]2)c(=O)[nH]c2ccccc12)c1ccn(C(C)C)n1 (single isomer, unassigned) [Compound 36b, (S*)-4-((1-(1-isopropyl-1H-pyrazol-3-yl)ethyl)amino)-3-(6-morpholino-1H-benzo[d]-imidazol-2-yl)quinolin-2(1H)-one] | 5.82 |
| 99.7 | 8.74 | 19.8 | 8.89 | COC(=O)C1CCN(c2ccc3nc(-c4c(N[C@@H](C)c5ccccn5)c5ccccc5[nH]c4=O)[nH]c3c2)CC1 [Compound 7, (S)-Methyl-1-(2-(2-oxo-4-((1-(pyridin-2-yl)ethyl)amino)-1,2-dihydroquinolin-3-yl)-1H-benzo[d]imidazol-6-yl)piperidine-4-carboxylate] | 6.07 |
| 547 | 7.70 | 454 | 8.27 | COc1ccnc(C(C)Nc2c(-c3nc4ccc(N5CCOCC5)cc4[nH]3)c(=O)[nH]c3ccccc23)c1 (single isomer, unassigned) [Compound 48a, (S*)-4-((1-(4-methoxypyridin-2-yl)ethyl)amino)-3-(6-morpholino-1H-benzo[d]imidazol-2-yl)quinolin-2(1H)-one] | 5.25 |
| 14.3 | 9.07 | 25.7 | 9.74 | CCCC(Nc1c(-c2nc3ccc(N4CCOCC4)cc3[nH]2)c(=O)[nH]c2ccccc12)c1ncccn1 (single isomer, unassigned) [Compound 31a, (S*)-3-(6-morpholino-1H-benzo[d]imidazol-2-yl)-4-((1-(pyrimidin-2-yl)butyl)amino)quinolin-2(1H)-one] | 5.53 |
| 9.93 | 9.00 | 20.3 | 9.19 | CC(Nc1c(-c2nc3ccc(N4CCC(OC(F)(F)F)CC4)cc3[nH]2)c(=O)[nH]c2ccccc12)c1ncccn1 (single isomer, unassigned) [Compound 43a, (S*)-4-((1-(pyrimidin-2-yl)ethyl)amino)-3-(6-(4-(trifluoromethoxy)piperidin-1-yl)-1H-benzo[d]imidazol-2-yl)quinolin-2(1H)-one] | 5.08 |
| 1.85 | 9.50 | 3.15 | 9.78 | C[C@@H]1CN(c2ccc3nc(-c4c(N[C@@H](C)c5ncccn5)c5ccccc5[nH]c4=O)[nH]c3c2)CCO1 (single isomer, unassigned) [Compound 40a] | 5.61 |
| 3.98 | 9.61 | 9.46 | 9.83 | CC(Nc1c(-c2nc3ccc(N4CC5CCC(C4)O5)cc3[nH]2)c(=O)[nH]c2ccccc12)c1ncccn1 (single isomer, unassigned) [Compound 44a, 3-(6-(8-oxa-3-azabicyclo[3.2.1]octan-3-yl)-1H-benzo[d]imidazol-2-yl)-4-(((S*)-1-(pyrimidin-2-yl)ethyl)amino)quinolin-2(1H)-one] | 5.52 |
